The source of these data is patent US9273003B2, “Methods of treating lymphoma and rheumatoid arthritis with cyclopentyl (2S)-cyclohexyl[({6-[3-(hydroxyamino)-3-oxopropyl]pyridin-3-yl}methyl)amino]acetate” (GlaxoSmithKline Intellectual Property Development Limited, priority 2006, dated 2016).

Each structure is given as a SMILES string. Where two headings read alike, the source gives them in different places.

Test [1] concerns HUT78 cells. Briefly: HUT cell inhibition assay (WST-1 cell viability). It is filed as cell-based. Conditions: Homo sapiens. The essentials:
(§1)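 Log-phase cells seeded at 1000-2000/well, grown 24 h, then exposed to compound for 72-96 h before WST-1 viability readout. Eight concentrations (top 10 μM final, 3-fold steps), 6 replicates; % inhibition versus DMSO, IC50 by sigmoidal variable-slope fit.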

The test system of test [2] is HeLa cells. Briefly: HeLa cell inhibition assay (sulphorhodamine B cell viability). In kind it is cell-based. Conditions: Homo sapiens, IC50 allocated to ranges. How it is done: HeLa cells growing in log phase were harvested and seeded at 1000 cells/well (200 μl final volume) into 96-well tissue culture plates. Following 24 h of cell growth cells were treated with compounds (final concentration of 20 μM). Plates were then re-incubated for a further 72 h before a sulphorhodamine B (SRB) cell viability assay was conducted according to the methodology described by Skehan et al, J. Natl. Canc. Inst., 1990, 82, 1107-1112.
Data were expressed as a percentage inhibition of the control, measured in the absence of inhibitor, as follows:— % inhibition=100−[(S^i/S^o)×100] where S^i is the signal in the presence of inhibitor and S^o is the signal in the presence of DMSO.
IC50 values were determined by non-linear regression analysis, after fitting the results of eight data points to the equation for sigmoidal dose response with variable slope (% activity against log concentration of Compound), using Graphpad Prism software.

Test [3] concerns the target histone deacetylase activity (HeLa nuclear extract). Briefly: HDAC fluorescent activity assay (Fluor de Lys, Biomol). In kind it is biochemical. The essentials: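 HeLa nuclear extract as HDAC source incubated with acetyl-lysine Fluor de Lys substrate ± inhibitor; developer then releases fluorophore from deacetylated substrate. Activity as % of vehicle control after no-enzyme background subtraction; IC50 from eight-point variable-slope sigmoidal fit.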

In test [4] the test system is U937 cells. Kind of test: U937 cell inhibition assay (WST-1 cell viability). Conditions: for IC50: Homo sapiens, U-937. In kind it is cell-based. The method in brief: as §1
Where [5] appears, read: HUT78 cells, IC50 allocated to ranges, read-out: HUT activity.
Where [6] appears, read: IC50 allocated to ranges, read-out: HDAC activity.
[7] abbreviates: U937 cells, IC50 allocated to ranges, read-out: U937 activity.

With `O=C(/C=C/c1cccc(S(=O)(=O)N[C@H](C(=O)OC2CCCC2)c2ccccc2)c1)NO` [Example 1, cyclopentyl (2S)-[({3-[(1E)-3-(hydroxyamino)-3-oxoprop-1-en-1-yl]phenyl}sulfonyl)amino](phenyl)acetate], the IC50 was more than 3300 nM in test [1] (setting [5]), more than 3300 nM in test [2], 101 to 1000 nM in test [3] (setting [6]) and more than 3300 nM in test [4] (setting [7]).
For the compound `O=C(/C=C/c1cccc(S(=O)(=O)N[C@H](C(=O)OC2CCCC2)C2CCCCC2)c1)NO` [Example 2, Cyclopentyl (2S)-cyclohexyl[({3-[(1E)-3-(hydroxyamino)-3-oxoprop-1-en-1-yl]phenyl}sulfonyl)amino]acetate], the IC50 in test [1] (setting [5]) is 331 to 3300 nM; in test [2], 331 to 3300 nM; in test [3] (setting [6]), less than 100 nM; in test [4] (setting [7]) it was 331 to 3300 nM.
`CC(C)C[C@H](NS(=O)(=O)c1cccc(/C=C/C(=O)NO)c1)C(=O)OC1CCCC1` [Example 3, Cyclopentyl N-({3-[(1E)-3-(hydroxyamino)-3-oxoprop-1-en-1-yl]phenyl}sulfonyl)-L-leucinate]: the IC50 in test [1] (setting [5]) is 331 to 3300 nM; in test [2], 331 to 3300 nM; in test [3] (setting [6]) it was less than 100 nM; in test [4] (setting [7]) it was 331 to 3300 nM.
For the compound `CC(C)(C)OC[C@H](NS(=O)(=O)c1cccc(/C=C/C(=O)NO)c1)C(=O)OC1CCCC1` [Example 4, Cyclopentyl O-tert-butyl-N-({3-[(1E)-3-(hydroxyamino)-3-oxoprop-1-en-1-yl]phenyl}sulfonyl)-L-serinate], the IC50 in test [1] (setting [5]) is 331 to 3300 nM; in test [2], 331 to 3300 nM; in test [3] (setting [6]), less than 100 nM; in test [4] (setting [7]), 331 to 3300 nM.
For `O=C(/C=C/c1cccc(C(=O)N[C@H](C(=O)OC2CCCC2)C2CCCCC2)c1)NO` [Example 5, Cyclopentyl (2S)-cyclohexyl({3-[(1E)-3-(hydroxyamino)-3-oxoprop-1-en-1-yl]benzoyl}amino)acetate], the IC50 in test [1] (setting [5]) is 331 to 3300 nM; in test [2], 331 to 3300 nM; in test [3] (setting [6]) it was less than 100 nM; in test [4] (setting [7]), 331 to 3300 nM.
As for `O=C(/C=C/c1cccc(C(=O)N[C@H](C(=O)OC2CCCC2)c2ccccc2)c1)NO` [Example 6, Cyclopentyl (2S)-({3-[(1E)-3-(hydroxyamino)-3-oxoprop-1-en-1-yl]benzoyl}amino)(phenyl)acetate], the IC50 in test [1] (setting [5]) was 331 to 3300 nM; in test [2], more than 3300 nM; in test [3] (setting [6]) it was 101 to 1000 nM; in test [4] (setting [7]) it was 331 to 3300 nM.
Consider `O=C(/C=C/c1ccc(C(=O)N[C@H](C(=O)OC2CCCC2)C2CCCCC2)cc1)NO` [Example 7, Cyclopentyl (2S)-cyclohexyl({4-[(1E)-3-(hydroxyamino)-3-oxoprop-1-en-1-yl]benzoyl}amino)acetate], for which the IC50 in test [1] (setting [5]) was 331 to 3300 nM; in test [2], more than 3300 nM; in test [3] (setting [6]) it was 101 to 1000 nM; in test [4] (setting [7]), 331 to 3300 nM.
`CC(C)C[C@H](NC(=O)c1ccc(/C=C/C(=O)NO)cc1)C(=O)OC1CCCC1` [Example 8, Cyclopentyl N-{4-[(1E)-3-(hydroxyamino)-3-oxoprop-1-en-1-yl]benzoyl}-L-leucinate]: the IC50 in test [1] (setting [5]) lay within 331 to 3300 nM; in test [2], 331 to 3300 nM; in test [3] (setting [6]) it was 101 to 1000 nM; in test [4] (setting [7]), 331 to 3300 nM.
As to `O=C(/C=C/c1ccc(OCCCN[C@H](C(=O)OC2CCCC2)C2CCCCC2)cc1)NO` [Example 9, Cyclopentyl (2S)-cyclohexyl[(3-{4-[(1E)-3-(hydroxyamino)-3-oxoprop-1-en-1-yl]phenoxy}propyl)amino]acetate], the IC50 in test [1] (setting [5]) was more than 3300 nM; in test [2], more than 3300 nM; in test [3] (setting [6]) it was more than 1000 nM; in test [4] (setting [7]), more than 3300 nM.
In the case of `CC(C)(C)OC[C@H](NCCCOc1ccc(/C=C/C(=O)NO)cc1)C(=O)OC1CCCC1` [Example 10, Cyclopentyl O-tert-butyl-N-(3-{4-[(1E)-3-(hydroxyamino)-3-oxoprop-1-en-1-yl]phenoxy}propyl)-L-serinate], the IC50 lay within 331 to 3300 nM in test [1] (setting [5]), 331 to 3300 nM in test [2], 101 to 1000 nM in test [3] (setting [6]) and 331 to 3300 nM in test [4] (setting [7]).
As for `CC(C)C[C@H](NCCCOc1ccc(/C=C/C(=O)NO)cc1)C(=O)OC1CCCC1` [Example 11, Cyclopentyl N-(3-{4-[(1E)-3-(hydroxyamino)-3-oxoprop-1-en-1-yl]phenoxy}propyl)-L-leucinate], the IC50 was 331 to 3300 nM in test [1] (setting [5]), more than 3300 nM in test [2], 101 to 1000 nM in test [3] (setting [6]) and 331 to 3300 nM in test [4] (setting [7]).
Regarding `O=C(/C=C/c1cccc(CN[C@H](C(=O)OC2CCCC2)C2CCCCC2)c1)NO` [Example 12, Cyclopentyl (2S)-cyclohexyl({3-[(1E)-3-(hydroxyamino)-3-oxoprop-1-en-1-yl]benzyl}amino)acetate], the IC50 is 331 to 3300 nM in test [1] (setting [5]), more than 3300 nM in test [2], 101 to 1000 nM in test [3] (setting [6]) and 331 to 3300 nM in test [4] (setting [7]).
As to `O=C(/C=C/c1cccc(CN[C@H](C(=O)OC2CCCC2)c2ccccc2)c1)NO` [Example 13, Cyclopentyl (2S)-({3-[(1E)-3-(hydroxyamino)-3-oxoprop-1-en-1-yl]benzyl}amino)(phenyl)acetate], the IC50 is 331 to 3300 nM in test [1] (setting [5]), more than 3300 nM in test [2], more than 1000 nM in test [3] (setting [6]) and more than 3300 nM in test [4] (setting [7]).
`O=C(/C=C/c1ccc(CN[C@H](C(=O)OC2CCCC2)C2CCCCC2)cc1)NO` [Example 14, Cyclopentyl (2S)-cyclohexyl({4-[(1E)-3-(hydroxyamino)-3-oxoprop-1-en-1-yl]benzyl}amino)acetate]: the IC50 in test [1] (setting [5]) was less than 330 nM; in test [1] (HUT78 non-monocytic cell line, read-out: Inhibition of HUT78 cell proliferation (IC50-nM)), 230 nM; in test [2] it was 331 to 3300 nM; in test [3] (setting [6]) it was less than 100 nM; in test [3] (read-out: Inhibition of HDAC (IC50-nM)) it was 59 nM; in test [4] (setting [7]), less than 330 nM. Further, in test [4] (U937 monocytic cell line, read-out: Inhibition of U937 cell proliferation (IC50-nM)), the IC50 came out at 5 nM. Besides, the “fold more potent as anti-proliferative agent than belinostat” value in test [4] (monocytic cell line U937, versus belinostat) was found to be 30 fold.
Take `CC(C)C[C@H](NCc1ccc(/C=C/C(=O)NO)cc1)C(=O)OC1CCCC1` [Example 15, Cyclopentyl N-{4-[(1E)-3-(hydroxyamino)-3-oxoprop-1-en-1-yl]benzyl}-L-leucinate]: the IC50 in test [1] (setting [5]) is less than 330 nM; in test [2] it was 331 to 3300 nM; in test [3] (setting [6]), less than 100 nM; in test [4] (setting [7]) it was less than 330 nM.
With `CC(C)(C)OC[C@H](NCc1ccc(/C=C/C(=O)NO)cc1)C(=O)OC1CCCC1` [Example 16, Cyclopentyl O-tert-butyl-N-{4-[(1E)-3-(hydroxyamino)-3-oxoprop-1-en-1-yl]benzyl}-L-serinate], the IC50 in test [1] (setting [5]) is 331 to 3300 nM; in test [2], more than 3300 nM; in test [3] (setting [6]), 101 to 1000 nM; in test [4] (setting [7]) it was 331 to 3300 nM.
Take `O=C(/C=C/c1ccc(CN[C@H](C(=O)OC2CCCC2)c2ccccc2)cc1)NO` [Example 17, Cyclopentyl (2S)-({4-[(1E)-3-(hydroxyamino)-3-oxoprop-1-en-1-yl]benzyl}amino)(phenyl)acetate]: the IC50 is 331 to 3300 nM in test [1] (setting [5]), more than 3300 nM in test [2], 101 to 1000 nM in test [3] (setting [6]) and less than 330 nM in test [4] (setting [7]).
For `CC(C)C[C@@H](NCc1ccc(/C=C/C(=O)NO)cc1)C(=O)OC1CCCC1` [Example 18, Cyclopentyl N-{4-[(1E)-3-(hydroxyamino)-3-oxoprop-1-en-1-yl]benzyl}-D-leucinate] the same measures were 331 to 3300 nM, more than 3300 nM, 101 to 1000 nM and 331 to 3300 nM.
For `O=C(/C=C/c1ccc(CN[C@@H](C(=O)OC2CCCC2)C2CCCCC2)cc1)NO` [Example 19, Cyclopentyl (2R)-cyclohexyl({4-[(1E)-3-(hydroxyamino)-3-oxoprop-1-en-1-yl]benzyl}amino)acetate] the same measures were more than 3300 nM, more than 3300 nM, 101 to 1000 nM and 331 to 3300 nM.
Consider `COC(=O)[C@H](Cc1c[nH]c2ccccc12)NCc1ccc(/C=C/C(=O)NO)cc1` [Example 29, Methyl N-{4-[(1E)-3-(hydroxyamino)-3-oxoprop-1-en-1-yl]benzyl}-L-tryptophanate], for which the IC50 in test [1] (setting [5]), in test [2] and in test [4] (setting [7]) was 331 to 3300 nM throughout.
For the compound `CC(C)(C)OC[C@H](NCc1ccc(CNCc2cccc(/C=C/C(=O)NO)c2)cc1)C(=O)OC1CCCC1` [Example 74, Cyclopentyl O-tert-butyl-N-{4-[({3-[(1E)-3-(hydroxyamino)-3-oxoprop-1-en-1-yl]benzyl}amino)methyl]benzyl}-L-serinate], the IC50 in test [1] (setting [5]) was 331 to 3300 nM; in test [2], more than 3300 nM; in test [4] (setting [7]) it was less than 330 nM.
